Measurements taken from US12252524B2, “GIP/GLP1 co-agonist compounds” (Eli Lilly and Company, priority 2018, dated 2025).
Where two headings read alike, the source gives them in different places. Numbered stars: 1 amine (or outer) side, 2 acyl side, 3 side chain; on linkers, the order of the positions; unused ones are H or OH. Square brackets hold non-standard residues; d marks the D form. Side chains are listed from the residue outwards. Peptide text beside a SMILES is read from it. * marks the point of attachment. C20 diacid = O=C(O)CCCCCCCCCCCCCCCCCCC(=O)*; γGlu = O=C(O)[C@H](CCC(=O)[*:2])N[*:1]; αMeY = C[C@](N)(Cc1ccc(O)cc1)C(=O)O; αMeF = C[C@](N)(Cc1ccccc1)C(=O)O; αMeL = CC(C)C[C@](C)(N)C(=O)O; Dab = NCC[C@H](N)C(=O)O; Dap = NC[C@H](N)C(=O)O; AEEA = NCCOCCOCC(=O)O; Aib = CC(C)(N)C(=O)O

Key:
[1] = target: human GLP-1 receptor (GLP-1R) (Homo sapiens, UniProt P43220); assay: cAMP pharmacological functional assay in presence of casein, hGLP-1R; assay type: cell-based
Chain of human GLP-1 receptor (GLP-1R) (P43220 24-463): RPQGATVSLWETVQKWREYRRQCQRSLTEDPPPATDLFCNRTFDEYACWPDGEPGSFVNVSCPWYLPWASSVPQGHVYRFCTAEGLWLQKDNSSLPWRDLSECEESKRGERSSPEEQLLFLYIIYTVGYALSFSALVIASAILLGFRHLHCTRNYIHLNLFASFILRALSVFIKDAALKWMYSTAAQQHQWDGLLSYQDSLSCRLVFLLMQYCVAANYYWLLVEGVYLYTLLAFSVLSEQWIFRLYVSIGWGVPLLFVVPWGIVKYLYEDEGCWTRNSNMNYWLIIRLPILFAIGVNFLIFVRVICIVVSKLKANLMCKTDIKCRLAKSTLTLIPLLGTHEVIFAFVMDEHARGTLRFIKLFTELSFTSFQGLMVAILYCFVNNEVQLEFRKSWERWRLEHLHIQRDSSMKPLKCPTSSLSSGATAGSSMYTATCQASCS

[2] = target: T1, gastric inhibitory peptide receptor (GIPR) (Homo sapiens, UniProt P48546); assay: cAMP pharmacological functional assay in presence of casein, hGIPR; assay type: cell-based
T1 sequence (P48546 22-466): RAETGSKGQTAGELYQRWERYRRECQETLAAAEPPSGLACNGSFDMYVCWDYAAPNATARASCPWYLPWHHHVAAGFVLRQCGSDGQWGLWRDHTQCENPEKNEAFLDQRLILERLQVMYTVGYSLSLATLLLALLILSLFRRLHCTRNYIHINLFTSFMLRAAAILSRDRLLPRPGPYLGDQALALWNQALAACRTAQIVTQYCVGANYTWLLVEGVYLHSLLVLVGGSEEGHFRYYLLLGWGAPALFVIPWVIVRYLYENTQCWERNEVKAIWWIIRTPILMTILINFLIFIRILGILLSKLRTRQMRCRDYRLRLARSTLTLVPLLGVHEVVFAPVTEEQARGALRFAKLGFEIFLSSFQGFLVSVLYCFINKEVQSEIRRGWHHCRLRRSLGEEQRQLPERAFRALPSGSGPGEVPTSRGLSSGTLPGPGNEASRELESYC

[3] = target: T2, human GLP-1R (Homo sapiens, UniProt P43220); assay: GLP-1R CHO cell β-arrestin recruitment assay; assay type: cell-based; set-up: host or cells: CHO-K1 PathHunter cells, assay-ready frozen; details: for hGLP1R B-Arrestin2 % Top: normalized to GLP-1 maximum control
T2 sequence (P43220 24-463): as the sequence (P43220 24-463) above
From the text: Activated G-protein coupled receptors can interact with the β-arrestin family of signalling proteins. […] CHO-K1 cells expressing Pro-Link-tagged Human GLP-1R and enzyme-acceptor-tagged β-arrestin-2 may be obtained from DiscoveRx and prepared as assay-ready frozen cells. Test peptides are solubilized in DMSO and serial dilutions are perfomed using the Echo acoustic dispenser (LabCyte). Assay media is the PathHunter Cell Assay Buffer (DiscoveRx) containing 0.1% w/v hydrolyzed Casein (Sigma). […] Plates are incubated for 90 minutes in a 37′C/5% C02 incubator and 10 ul of PathHunter detection reagent is added (DiscoveRx) and plates are incubated at room temperature for 60 minutes. Luminescence signal is measured. Peptide concentration-response curves fit to a four-parameter logistic model to calculate potency as an EC50.

[4] = target: T2, human GLP-1R; assay: GLP-1R HEK293 cell membrane [35S]GTPγS binding assay; assay type: biochemical; set-up: expressed in transfected cells; host or cells: HEK293 cells expressing human GLP-1R; membranes
Summary of the method: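 Membranes from HEK293 cells expressing the receptor incubated with peptide and […] [35S]GTPγS in HEPES pH 7.4 buffer with NaCl, MgCl2, saponin and BSA, 30 min at room temperature. Gαs-bound label captured by anti-Gαs antibody/SPA beads and counted; EC50 from four-parameter logistic fit.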

[5] = HEK293 cells expressing hGLP-1R, 0.1% Casein, geometric mean, read-out: hGLP1R cAMP Rel EC50 nM (SEM, n)
[6] = HEK293 cells expressing hGIPR, 0.1% Casein, geometric mean, read-out: hGIPR cAMP Rel EC50 nM (SEM, n)
[7] = CHO-K1 cells, PathHunter β-arrestin-2 recruitment, 0.1% casein, read-out: hGLP1R B-Arrestin2 Rel EC50 uM (SEM, n)
[8] = HEK293 cell membranes expressing human GLP-1R, [35S]GTPγS binding, read-out: hGLP1R GTPgS Rel EC50 nM (SEM, n)

Row | Structure (SMILES) | EC50 [1] | EC50 [2] | EC50 [3] | hGLP1R B-Arrestin2 % Top [3] | EC50 [4] | EC50 [1, 5] | EC50 [2, 6] | EC50 [3, 7] | EC50 [4, 8]
1 | CC[C@H](C)[C@H](NC(=O)[C@H](CC(C)C)NC(=O)[C@H](Cc1ccc(O)cc1)NC(=O)[C@H](CCC(=O)O)NC(=O)[C@@H](NC(=O)[C@H](Cc1ccccc1)NC(=O)[C@H](CCC(=O)O)NC(=O)C(C)(C)NC(=O)[C@H](CCC(N)=O)NC(=O)[C@H](C)NC(=O)[C@H](CCCCNC(=O)COCCOCCNC(=O)COCCOCCNC(=O)CC[C@H](NC(=O)CCCCCCCCCCCCCCCCCCC(=O)O)C(=O)O)NC(=O)[C@H](CCCCN)NC(=O)[C@H](CC(=O)O)NC(=O)[C@H](CC(C)C)NC(=O)[C@](C)(CC(C)C)NC(=O)[C@@H](NC(=O)[C@H](CO)NC(=O)[C@H](Cc1ccc(O)cc1)NC(=O)[C@H](CC(=O)O)NC(=O)[C@H](CO)NC(=O)[C@@H](NC(=O)[C@](C)(Cc1ccccc1)NC(=O)[C@@H](NC(=O)CNC(=O)[C@H](CCC(=O)O)NC(=O)C(C)(C)NC(=O)[C@H](N)Cc1ccc(O)cc1)[C@@H](C)O)[C@@H](C)O)[C@@H](C)CC)[C@@H](C)CC)C(=O)N[C@@H](C)C(=O)NCC(=O)NCC(=O)N1CCC[C@H]1C(=O)N[C@@H](CO)C(=O)N[C@@H](CO)C(=O)NCC(=O)N[C@@H](C)C(=O)N1CCC[C@H]1C(=O)N1CCC[C@H]1C(=O)N1CCC[C@H]1C(=O)N[C@@H](CO)C(N)=O [Example 345] (H-[dY][Aib]EGT[αMeF]TSDYSI[αMeL]LDKK([AEEA-AEEA-γGlu-C20 diacid])AQ[Aib]EFIEYLIAGGPSSGAPPPS-NH2) | 0.035 nM | 0.0649 nM | 0.00308 µM | 74.7% | 0.684 nM | – | – | – | –
2 | CC[C@H](C)[C@H](NC(=O)[C@H](CC(C)C)NC(=O)[C@H](Cc1ccc(O)cc1)NC(=O)[C@H](CCC(=O)O)NC(=O)[C@@H](NC(=O)[C@H](Cc1ccccc1)NC(=O)[C@H](C)NC(=O)C(C)(C)NC(=O)[C@H](CCC(N)=O)NC(=O)[C@H](C)NC(=O)[C@H](CCCCNC(=O)COCCOCCNC(=O)COCCOCCNC(=O)CC[C@H](NC(=O)CCCCCCCCCCCCCCCCCCC(=O)O)C(=O)O)NC(=O)[C@H](CCN)NC(=O)[C@H](CC(=O)O)NC(=O)[C@H](CC(C)C)NC(=O)[C@](C)(CC(C)C)NC(=O)[C@@H](NC(=O)[C@H](CO)NC(=O)[C@H](Cc1ccc(O)cc1)NC(=O)[C@H](CC(=O)O)NC(=O)[C@H](CO)NC(=O)[C@@H](NC(=O)[C@H](Cc1ccccc1)NC(=O)[C@@H](NC(=O)CNC(=O)[C@H](CCC(=O)O)NC(=O)C(C)(C)NC(=O)[C@H](N)Cc1ccc(O)cc1)[C@@H](C)O)[C@@H](C)O)[C@@H](C)CC)[C@@H](C)CC)C(=O)N[C@@H](C)C(=O)NCC(=O)NCC(=O)N1CCC[C@H]1C(=O)N[C@@H](CO)C(=O)N[C@@H](CO)C(=O)NCC(=O)N[C@@H](C)C(=O)N1CCC[C@H]1C(=O)N1CCC[C@H]1C(=O)N1CCC[C@H]1C(=O)N[C@@H](CO)C(N)=O [Example 347] (H-[dY][Aib]EGTFTSDYSI[αMeL]LD[Dab]K([AEEA-AEEA-γGlu-C20 diacid])AQ[Aib]AFIEYLIAGGPSSGAPPPS-NH2) | – | – | – | 24.6% | – | 0.102 nM | 0.0827 nM | 0.00542 µM | 0.759 nM
3 | CC[C@H](C)[C@H](NC(=O)[C@H](CC(C)C)NC(=O)[C@H](Cc1ccc(O)cc1)NC(=O)[C@H](CCC(=O)O)NC(=O)[C@@H](NC(=O)[C@H](Cc1ccccc1)NC(=O)[C@H](C)NC(=O)C(C)(C)NC(=O)[C@H](CCC(N)=O)NC(=O)[C@H](C)NC(=O)[C@H](CCCCNC(=O)COCCOCCNC(=O)COCCOCCNC(=O)CC[C@H](NC(=O)CCCCCCCCCCCCCCCCCCC(=O)O)C(=O)O)NC(=O)[C@H](CN)NC(=O)[C@H](CC(=O)O)NC(=O)[C@H](CC(C)C)NC(=O)[C@](C)(CC(C)C)NC(=O)[C@@H](NC(=O)[C@H](CO)NC(=O)[C@H](Cc1ccc(O)cc1)NC(=O)[C@H](CC(=O)O)NC(=O)[C@H](CO)NC(=O)[C@@H](NC(=O)[C@H](Cc1ccccc1)NC(=O)[C@@H](NC(=O)CNC(=O)[C@H](CCC(=O)O)NC(=O)C(C)(C)NC(=O)[C@H](N)Cc1ccc(O)cc1)[C@@H](C)O)[C@@H](C)O)[C@@H](C)CC)[C@@H](C)CC)C(=O)N[C@@H](C)C(=O)NCC(=O)NCC(=O)N1CCC[C@H]1C(=O)N[C@@H](CO)C(=O)N[C@@H](CO)C(=O)NCC(=O)N[C@@H](C)C(=O)N1CCC[C@H]1C(=O)N1CCC[C@H]1C(=O)N1CCC[C@H]1C(=O)N[C@@H](CO)C(N)=O [Example 348] (H-[dY][Aib]EGTFTSDYSI[αMeL]LD[Dap]K([AEEA-AEEA-γGlu-C20 diacid])AQ[Aib]AFIEYLIAGGPSSGAPPPS-NH2) | – | – | – | 19.8% | – | 0.113 nM | 0.193 nM | 0.00346 µM | 0.66 nM
4 | CC[C@H](C)[C@H](NC(=O)[C@H](CC(C)C)NC(=O)[C@H](Cc1ccc(O)cc1)NC(=O)[C@H](CCC(=O)O)NC(=O)[C@@H](NC(=O)[C@H](Cc1ccccc1)NC(=O)[C@H](CCC(=O)O)NC(=O)C(C)(C)NC(=O)[C@H](CCC(N)=O)NC(=O)[C@H](C)NC(=O)[C@H](CCCCNC(=O)COCCOCCNC(=O)COCCOCCNC(=O)CC[C@H](NC(=O)CCCCCCCCCCCCCCCCCCC(=O)O)C(=O)O)NC(=O)[C@H](CCN)NC(=O)[C@H](CC(=O)O)NC(=O)[C@H](CC(C)C)NC(=O)[C@](C)(CC(C)C)NC(=O)[C@@H](NC(=O)[C@H](CO)NC(=O)[C@H](Cc1ccc(O)cc1)NC(=O)[C@H](CC(=O)O)NC(=O)[C@H](CO)NC(=O)[C@@H](NC(=O)[C@H](Cc1ccccc1)NC(=O)[C@@H](NC(=O)CNC(=O)[C@H](CCC(=O)O)NC(=O)C(C)(C)NC(=O)[C@H](N)Cc1ccc(O)cc1)[C@@H](C)O)[C@@H](C)O)[C@@H](C)CC)[C@@H](C)CC)C(=O)N[C@@H](C)C(=O)NCC(=O)NCC(=O)N1CCC[C@H]1C(=O)N[C@@H](CO)C(=O)N[C@@H](CO)C(=O)NCC(=O)N[C@@H](C)C(=O)N1CCC[C@H]1C(=O)N1CCC[C@H]1C(=O)N1CCC[C@H]1C(=O)N[C@@H](CO)C(N)=O [Example 350] (H-[dY][Aib]EGTFTSDYSI[αMeL]LD[Dab]K([AEEA-AEEA-γGlu-C20 diacid])AQ[Aib]EFIEYLIAGGPSSGAPPPS-NH2) | – | – | – | 21.8% | – | 0.107 nM | 0.189 nM | 0.0108 µM | 0.589 nM
5 | CC[C@H](C)[C@H](NC(=O)[C@H](CC(C)C)NC(=O)[C@](C)(Cc1ccc(O)cc1)NC(=O)[C@H](CCC(=O)O)NC(=O)[C@@H](NC(=O)[C@H](Cc1ccccc1)NC(=O)[C@H](C)NC(=O)C(C)(C)NC(=O)[C@H](CCC(N)=O)NC(=O)[C@H](C)NC(=O)[C@H](CCCCNC(=O)COCCOCCNC(=O)COCCOCCNC(=O)CC[C@H](NC(=O)CCCCCCCCCCCCCCCCCCC(=O)O)C(=O)O)NC(=O)[C@H](CCC(=O)O)NC(=O)[C@H](CC(=O)O)NC(=O)[C@H](CC(C)C)NC(=O)[C@](C)(CC(C)C)NC(=O)[C@@H](NC(=O)[C@H](CO)NC(=O)[C@H](Cc1ccc(O)cc1)NC(=O)[C@H](CC(=O)O)NC(=O)[C@H](CO)NC(=O)[C@@H](NC(=O)[C@H](Cc1ccccc1)NC(=O)[C@@H](NC(=O)CNC(=O)[C@H](CCC(=O)O)NC(=O)C(C)(C)NC(=O)[C@H](N)Cc1ccc(O)cc1)[C@@H](C)O)[C@@H](C)O)[C@@H](C)CC)[C@@H](C)CC)C(=O)N[C@@H](C)C(=O)NCC(=O)NCC(=O)N1CCC[C@H]1C(=O)N[C@@H](CO)C(=O)N[C@@H](CO)C(=O)NCC(=O)N[C@@H](C)C(=O)N1CCC[C@H]1C(=O)N1CCC[C@H]1C(=O)N1CCC[C@H]1C(=O)N[C@@H](CO)C(N)=O [Example 381] (H-[dY][Aib]EGTFTSDYSI[αMeL]LDEK([AEEA-AEEA-γGlu-C20 diacid])AQ[Aib]AFIE[αMeY]LIAGGPSSGAPPPS-NH2) | – | – | – | 25.8% | – | – | – | 0.0155 µM | 0.273 nM
